Measured values: US20240108674A1, “BERBERIS EXTRACT NANO-FORMULATION AND PROCESS OF PREPARATION THEREOF” (priority 2021, published 2024)

Tested on: RBC membrane
Assay: In-vitro anti-inflammatory activity, RBC membrane protection
Type: cell-based
Details: concentration of 5 mg/mL

Structure (SMILES)	RBC membrane protection
O=C(O)Cc1ccccc1Nc1c(Cl)cccc1Cl [diclofenac sodium]	76%
C[C@]12C=CC(=O)C=C1CC[C@@H]1[C@@H]2[C@@H](O)C[C@@]2(C)[C@H]1CC[C@]2(O)C(=O)CO [prednisolone]	73%
